Values of other authors, collected in patent US5922837A, “Antiprotozoal cyclic tetrapeptides” (Merck & Co., Inc., priority 1997, dated 1999).

Tests used:
[1] = tested on: mammalian histone deacetylase
[2] = tested on: partially purified yeast histone deacetylase
[3] = tested on: murine erythroleukemia cells
[4] = tested on: sis-transformed fibroblast cells
[5] = tested on: v-sis-transformed NIH3T3 cells

| Compound | type of inhibition of mammalian histone deacetylase [1] | anti-trichomonal activity (trichomonal) | inhibition of partially purified yeast histone deacetylase [2] | cell differentiating activity [3] | induction of phenotypic reversion [4] | morphological reversion [5] |
| --- | --- | --- | --- | --- | --- | --- |
| CC(/C=C/C(=O)NO)=C\[C@@H](C)C(=O)c1ccc(N(C)C)cc1 [trichostatin A] | reversible | anti-trichomonal activity | inhibit | cell differentiating activity | ability to induce phenotypic reversion | – |
| trapoxin A | irreversible | – | – | – | – | induces morphological reversion |
